# Measurements published in ChEMBL document CHEMBL5226357, “Engineering Selectivity for Reduced Toxicity of Bacterial Kinase Inhibitors Using Structure-Guided Medicinal Chemistry” (ACS Med Chem Lett, 2021).
# Columns and labels:
# [1] = target: T1, Serine/threonine-protein kinase PknB (Mycobacterium tuberculosis, UniProt P9WI81); assay: Binding affinity to Mycobacterium tuberculosis recombinant N-terminal His-tagged PknB (1 to 331 residues) expressed in Escherichia coli DH5alpha cells by microscale thermophoresis analysis
# T1 sequence (P9WI81 whole entry): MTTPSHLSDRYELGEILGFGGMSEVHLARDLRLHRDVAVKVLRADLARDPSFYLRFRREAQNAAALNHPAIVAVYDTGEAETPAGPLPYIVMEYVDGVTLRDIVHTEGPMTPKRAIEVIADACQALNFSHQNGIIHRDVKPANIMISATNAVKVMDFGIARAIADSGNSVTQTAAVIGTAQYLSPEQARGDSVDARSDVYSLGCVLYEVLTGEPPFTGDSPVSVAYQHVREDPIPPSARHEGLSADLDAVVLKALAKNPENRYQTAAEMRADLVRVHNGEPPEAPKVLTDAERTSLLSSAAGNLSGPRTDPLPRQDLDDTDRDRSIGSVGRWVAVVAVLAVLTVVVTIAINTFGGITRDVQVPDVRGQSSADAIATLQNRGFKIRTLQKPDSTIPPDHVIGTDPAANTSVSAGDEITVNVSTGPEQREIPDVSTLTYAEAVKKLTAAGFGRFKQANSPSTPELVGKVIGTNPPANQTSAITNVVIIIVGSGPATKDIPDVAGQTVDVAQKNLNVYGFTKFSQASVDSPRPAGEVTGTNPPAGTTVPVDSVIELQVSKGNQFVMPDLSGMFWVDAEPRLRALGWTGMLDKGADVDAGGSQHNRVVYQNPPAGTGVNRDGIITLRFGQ
# [2] = target: T1, Serine/threonine-protein kinase PknB; assay: Inhibition of Mycobacterium tuberculosis recombinant PknB (1 to 331 residues) expressed in Escherichia coli BL21-Rosetta cells using GarA and ATP as substrate preincubated with enzyme for 10 mins followed by substrate addition and measured after 1 hr by ATP-competitive biochemical assay
# [3] = target: Cyclin-dependent kinase 2/cyclin A (Homo sapiens, UniProt P24941); assay: Inhibition of human Cdk2/Cyclin A using Myelin basic protein as substrate by ATP competitive assay; type: toxicity
# [4] = target: Serine/threonine-protein kinase pim-1 (Homo sapiens, UniProt P11309); assay: Binding affinity to human partial length Pim1 (A15 to K313 residues ) expressed in bacterial expression system by KdELECT kinase assay; type: toxicity
# [5] = Lipophilicity, logD of the compound in octanol and phosphate buffer at pH 7.4 at 66.7 uM by LC-MS/MS analysis; type: physicochemical; settings: octanol/water, pH 7.4, 66.7 µM
# [6] = Selectivity ratio of Kd for human full length GSK-3 beta (M1 to T433 residues) expressed in mammalian expression system to Kd for Mycobacterium tuberculosis partial length PknB (M1 to G279 residues) expressed in mammalian expression system
# [7] = Selectivity ratio of Kd for human partial length Pim1 (A15 to K313 residues ) expressed in bacterial expression system to Kd for Mycobacterium tuberculosis partial length PknB (M1 to G279 residues) expressed in mammalian expression system
# [8] = Selectivity ratio of Kd for human partial length mTOR (L1382 to W2549 residues) expressed in mammalian expression system to Kd for Mycobacterium tuberculosis partial length PknB (M1 to G279 residues) expressed in mammalian expression system
# [9] = target: Glycogen synthase kinase-3 beta (Homo sapiens, UniProt P49841); assay: Binding affinity to human full length GSK-3 beta (M1 to T433 residues) expressed in mammalian expression system by KdELECT kinase assay; type: toxicity
# [10] = system: Mycobacterium tuberculosis; assay: Antimycobacterial activity against Mycobacterium tuberculosis H37Ra ATCC 25177 assessed as inhibition of bacterial growth incubated for 12 days by Alamar Blue based fluorescence analysis; type: functional; settings: H37Ra ATCC 25177, 288 h, time 12 day
# [11] = Selectivity ratio of Kd for human full length CDK4 (M1 to E303 residues) expressed in mammalian expression system/CyclinD3 to Kd for Mycobacterium tuberculosis partial length PknB (M1 to G279 residues) expressed in mammalian expression system
# [12] = target: Serine/threonine-protein kinase mTOR (Homo sapiens, UniProt P42345); assay: Binding affinity to human partial length mTOR (L1382 to W2549 residues) expressed in mammalian expression system by KdELECT kinase assay; type: toxicity
# [13] = Toxicity against Zebrafish embryo assessed as embryo survival at 5 uM incubated for 5 days and measured daily; design: species or system Danio rerio; settings: zebrafish embryos, time 5 day
# THP-1 = assay: Cytotoxicity against human THP-1 cells assessed as reduction in cell viability incubated for 72 hrs by CellTiter-Glo luminescent assay; type: toxicity, cell-based; settings: thp-1, 72 h
# CDK4/Cyclin D3 = CDK4/Cyclin D3 (Homo sapiens, UniProt P11802); assay: Binding affinity to human full length CDK4 (M1 to E303 residues) expressed in mammalian expression system/CyclinD3 by KdELECT kinase assay; type: toxicity
# [14] = target: T1, Serine/threonine-protein kinase PknB; assay: Binding affinity to Mycobacterium tuberculosis partial length PknB (M1 to G279 residues) expressed in mammalian expression system by KdELECT kinase assay
SMILES,Kd [1] [nM],IC50 [2] [nM],Ki [2] [nM],IC50 [3] [nM],Kd [4] [nM],logD [5],Selectivity ratio [6],Selectivity ratio [7],Selectivity ratio [8],Kd [9] [nM],MIC [10] [µM],Selectivity ratio [11],Kd [12] [nM],"survival at 120 h, 5 µM [13] [%]",CC50 (THP-1) [nM],Kd (CDK4/Cyclin D3) [nM],Kd [14] [nM]
CNc1cc(-c2ccnc(Nc3ccc(N4CCN(C)CC4)c(C(F)(F)F)c3)n2)ccn1,920,9400,2700,39000,,,,,,,,,,,,,
COc1cccc(-c2ccnc(Nc3ccc(N4CCN(C)CC4)c(C(F)(F)F)c3)n2)c1,660,6600,1900,10000,,,,,,,,,,,,,
CN1CCN(c2ccc(Nc3nccc(-c4cccc([N+](=O)[O-])c4)n3)cc2C(F)(F)F)CC1,34,1200,320,> 40000,2200,4.5,> 100,> 100,> 100,3800,19,48,5800,0,3890,910,19
CN1CCN(c2ccc(Nc3nccc(-c4ccc([N+](=O)[O-])cc4)n3)cc2C(F)(F)F)CC1,410,3800,1100,180,,,,,,,,,,,,,
CN1CCN(c2ccc(Nc3nccc(-c4ccnc(NCc5ccccc5)c4)n3)cc2C(F)(F)F)CC1,2100,7900,2300,7300,,,,,,,,,,,,,
CN1CCN(c2ccc(Nc3nccc(-c4cccc(C#N)c4)n3)cc2C(F)(F)F)CC1,73,2500,700,> 40000,,,,,,,,,,,,,
CN1CCN(c2ccc(Nc3nccc(-c4ccc5ccccc5c4)n3)cc2C(F)(F)F)CC1,430,3400,970,> 40000,,> 5.7,,,,,6,,,100,3040,,
CN1CCN(c2ccc(Nc3nccc(-c4cccc(F)c4)n3)cc2C(F)(F)F)CC1,710,6100,1800,24000,,,,,,,,,,,,,
CN1CCN(c2ccc(Nc3nccc(-c4ccc(C#N)cc4)n3)cc2C(F)(F)F)CC1,700,5100,1500,13000,,,,,,,,,,,,,
CN1CCN(c2ccc(Nc3nccc(-c4cccnc4)n3)cc2C(F)(F)F)CC1,61,1700,470,9300,,3.53,,,,,100,,,56,1060,,
CN1CCN(c2ccc(Nc3nccc(-c4ccccc4)n3)cc2C(F)(F)F)CC1,1200,4600,1300,> 40000,5200,4.8,,,,2800,25,,> 10000,96,4100,1200,430
CN1CCN(c2ccc(Nc3nccc(-c4cccc(Cl)c4)n3)cc2C(F)(F)F)CC1,340,4300,1200,> 40000,> 10000,> 6,,,,9300,12,,> 10000,57,5280,3000,180
CN1CCN(c2ccc(Nc3nccc(-c4ccnc(Cl)c4)n3)cc2C(F)(F)F)CC1,48,1100,290,7200,2200,4.3,,,,2600,25,,690,89,1140,440,47
CN1CCN(c2ccc(Nc3nccc(-c4ccc(F)cc4)n3)cc2C(F)(F)F)CC1,3000,> 40000,> 12000,12000,,,,,,,,,,,,,
CN1CCN(c2ccc(Nc3nccc(-c4ccc(Cl)cc4)n3)cc2C(F)(F)F)CC1,2200,8100,2400,> 40000,,,,,,,,,,,,,
Cc1ccc(-c2ccnc(Nc3ccc(N4CCN(C)CC4)c(C(F)(F)F)c3)n2)cc1,30,1600,440,> 40000,,> 5.85,,,,,12,,,0,4940,,
